The values below come from article PMC13422867, “An orally available PfPKG inhibitor blocks Plasmodium’s infection of the liver” (PLOS Pathogens, 2026).

Data set [1] deals with P. falciparum sporozoites. Put plainly: Sporozoite infection of primary human hepatocytes, high-content imaging. The format is cell-based, Plasmodium falciparum. On the procedure: Liver stage antimalarial activity was evaluated using sporozoites from P. falciparum (NF54 strain) and P. cynomolgi bastianellii (B strain). P. falciparum-infected Anopheles stephensi mosquitoes were reared at WRAIR, while P. cynomolgi-infected Anopheles dirus mosquitoes were obtained from the Armed Forces Research Institute of Medical Sciences (AFRIMS), Thailand. Sporozoites were isolated by dissecting salivary glands under sterile conditions, followed by gentle mechanical disruption. Freshly isolated sporozoites were immediately used for hepatocyte infection. […]
(§1) Cells were fixed using 4% paraformaldehyde for 20 minutes at room temperature, followed by three PBS washes, and stored at 4°C until further processing. Parasite detection was performed using species-specific primary antibodies, with P. cynomolgi parasites labeled using a mouse monoclonal anti-Plasmodium GAPDH antibody (1.6 μg/mL, European Malaria Reagent Repository) and P. falciparum parasites detected using a rabbit polyclonal anti-PfHSP70 antibody (1:70 dilution, LS Bio, USA). […]
High-content imaging was performed using the Operetta CLS system (Revvity) and image analysis was performed with Harmony software version 4.9 (Revvity, Waltham, MA, USA). Images were acquired at 10x or 20x magnification using DAPI and TRITC fluorescence channels. […]

The next data set concerns P. cynomolgi hypnozoite. In words: Hypnozoite formation in primary simian hepatocytes, high-content imaging. The format is cell-based, Plasmodium cynomolgi. Here is the method: (§2) Liver stage antimalarial activity was evaluated using sporozoites from P. falciparum (NF54 strain) and P. cynomolgi bastianellii (B strain). P. falciparum-infected Anopheles stephensi mosquitoes were reared at WRAIR, while P. cynomolgi-infected Anopheles dirus mosquitoes were obtained from the Armed Forces Research Institute of Medical Sciences (AFRIMS), Thailand. Sporozoites were isolated by dissecting salivary glands under sterile conditions, followed by gentle mechanical disruption. Freshly isolated sporozoites were immediately used for hepatocyte infection.
(§3) Primary cryopreserved hepatocytes were selected based on host-parasite compatibility: primary simian hepatocytes (lot OQB) for P. cynomolgi and human hepatocytes (lot BGW) for P. falciparum (BioIVT Inc., Baltimore, MD, USA). Cells were thawed according to the manufacturer’s protocol and seeded into 384-well collagen-coated assay plates (Greiner Bio-One, Monroe, NC, USA) using InVitroGro CP plating medium (BioIVT). Seeding densities were optimized for uniform monolayer formation, and hepatocytes were allowed to adhere for 24–48 hours before infection. Sporozoites were added at a 1:1.1 hepatocyte-to-sporozoite ratio within 48 hours post-seeding. Automated robotic systems were used for media changes and compound additions to ensure assay consistency and minimize variability associated with manual pipetting.
(§4) Test compounds (PfPKG inhibitors) and assay drug controls (KDU-691 and tafenoquine) were solubilized in DMSO or PBS and serially diluted into 8- or 12-point, 2- or 3-fold series, achieving final assay concentrations ranging from 20 µM to 0.019 µM. Compounds were introduced using a calibrated pin tool controlled by robotic arms (V&P Scientific), ensuring a 1:1000 dilution into assay wells. Media were replenished daily with fresh drug-containing HCM. […]
as §1
(§5) High-content imaging was performed using the Operetta CLS system (Revvity) and image analysis was performed with Harmony software version 4.9 (Revvity, Waltham, MA, USA). Images were acquired at 10x or 20x magnification using DAPI and TRITC fluorescence channels. Following the established protocol, parasites were classified as hypnozoites or schizonts based on fluorescence intensity (mean and maximum), morphological features (cell roundness and size), and segmentation criteria. […]

A further data set relates to P. cynomolgi schizont. In words: Schizont formation in primary simian hepatocytes, high-content imaging. The format is cell-based, Plasmodium cynomolgi. Here is the method:
as §2, §3, §4, §1, §5

The subject of data set [2] is primary human hepatocytes. In words: Cellular cytotoxicity, hepatocyte nuclear counts. To be noted: cellular cytotoxicity. The format is cell-based.
Description: as §3
Test compounds (PfPKG inhibitors) and assay drug controls (KDU-691 and tafenoquine) were solubilized in DMSO or PBS and serially diluted into 8- or 12-point, 2- or 3-fold series, achieving final assay concentrations ranging from 20 µM to 0.019 µM. […]
High-content imaging was performed using the Operetta CLS system (Revvity) and image analysis was performed with Harmony software version 4.9 (Revvity, Waltham, MA, USA). Images were acquired at 10x or 20x magnification using DAPI and TRITC fluorescence channels. Following the established protocol, parasites were classified as hypnozoites or schizonts based on fluorescence intensity (mean and maximum), morphological features (cell roundness and size), and segmentation criteria. […] Hepatocyte viability was determined by quantifying nuclear counts per well using Hoechst stain intensity thresholds. […] An in-house built Python-based image analysis script identified parasite objects using predefined fluorescence intensity thresholds. […] Parasite size was quantified by calculating the average object area (µm²) of validated parasite structures per well. […] Dose-response inhibition and IC50 were calculated relative to in-plate negative controls (DMSO-treated wells). […]

Data set [3] concerns primary simian hepatocytes. Put plainly: Cellular cytotoxicity, hepatocyte nuclear counts. The format is cell-based.
Description: as §3
Test compounds (PfPKG inhibitors) and assay drug controls (KDU-691 and tafenoquine) were solubilized in DMSO or PBS and serially diluted into 8- or 12-point, 2- or 3-fold series, achieving final assay concentrations ranging from 20 µM to 0.019 µM. Compounds were introduced using a calibrated pin tool controlled by robotic arms (V&P Scientific), ensuring a 1:1000 dilution into assay wells. Media were replenished daily with fresh drug-containing HCM. Compounds were added 1-hour post-infection (p.i.) (day 0) and administered daily for 3 days. Cells were fixed on day 6 p.i. of P. falciparum culture and day 8 for P. cynomolgi infected culture, coinciding with liver stage schizont maturation.
High-content imaging was performed using the Operetta CLS system (Revvity) and image analysis was performed with Harmony software version 4.9 (Revvity, Waltham, MA, USA). Images were acquired at 10x or 20x magnification using DAPI and TRITC fluorescence channels. Following the established protocol, parasites were classified as hypnozoites or schizonts based on fluorescence intensity (mean and maximum), morphological features (cell roundness and size), and segmentation criteria. Hepatocyte nuclei were identified using Hoechst 33342 staining. Background signal was captured in uninfected, stained wells and subjected to the same parasite detection algorithm. Estimate erroneous parasite counts were then subtracted from infected well counts. Hepatocyte viability was determined by quantifying nuclear counts per well using Hoechst stain intensity thresholds. […] An in-house built Python-based image analysis script identified parasite objects using predefined fluorescence intensity thresholds. […] Parasite size was quantified by calculating the average object area (µm²) of validated parasite structures per well. […] Dose-response inhibition and IC50 were calculated relative to in-plate negative controls (DMSO-treated wells). […]

Data set [4] concerns P. berghei sporozoites (PbLuc-GFP). Put plainly: In vivo chemoprotective efficacy against sporozoite liver infection. Further details: species or system Plasmodium berghei in mice. Here is the method: In the first experiment, mice were administered three doses, intravenously (IV) or orally (PO), of compound (10 mg/kg) - two prior to sporozoite inoculation to block sporozoite invasion of hepatocytes and the third at 36 hpi to prevent egress of liver stages (Fig 3A). In vivo bioluminescent imaging (IVIS) of mice was utilized to detect and quantify relative parasitemia in the liver and flow cytometry was used to detect the appearance of blood stage parasites. Vehicle-treated mice were used as a negative control.
In vivo chemoprotective efficacy was evaluated using luciferase-expressing P. berghei ANKA sporozoites. […] Liver stage parasite burden was measured 42–48 h p.i. by bioluminescence imaging (IVIS Spectrum). Photon flux from the liver region was quantified using Living Image software. All animal procedures were approved by the Rutgers Institutional Animal Care and Use Committee (IACUC).

Data set [5] has the same test system. The description is as above. To be noted: Intravenous, 10 mg/kg x 3. Also noted: species or system Plasmodium berghei in mice.

“And” between values parts separate entries of the source, which are not always exact repeats. Identical values can stand only once.

`CNC(=O)c1ccc(-c2cnc3cnc(C(=O)N(C)c4ccc(Cl)cc4)cn23)cc1` [KDU-691]: the half-inhibitory concentration (IC50) in data set [1] was 0.051 µM; in the data set with P. cynomolgi hypnozoite, 0.11 µM; in the data set with P. cynomolgi schizont it was 0.042 µM. For the same compound, the CC50 in data set [2] and in data set [3] was above 10 µM each time.
`CN1CCC(c2cc(-c3ccncc3)c(-c3ccc(F)cc3)[nH]2)CC1` [TSP, reference compound]: the IC50 in the data set on P. cynomolgi hypnozoite amounted to 0.4 µM; with P. cynomolgi schizont it was 0.32 µM. The CC50 in data set [3] turned out to be 8.5 µM. Also, the “mice that did not show blood stage parasites for 3 weeks pi” value in data set [4] (3 intravenous doses, 10 mg/kg) is 2/5. In addition, the “mice displaying liver infection at 44 hpi” value in data set [4] (IV, 10 mg/kg x 3, bioluminescent imaging) is 3/5. The “Prepatent period mean ± sd” value in data set [4] (Intravenous, 10 mg/kg x 3, blood stages by flow cytometry, 10 mg/kg) was 4.3 days and 4.3 ± 1.1 days. Besides, the “No. of mice patent by D21/ No. of mice inoculated” value in data set [5] is listed as 3/5.
